Source: the supplement of paper PMC5908809

What was measured:
[1] = test system: normal NK cells expanded with K562-aAPC; experiment: percent inhibition of viability; higher = more inhibition; details: 72 h, IL-2 2.5 ng/mL
Protocol: (§1)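 Drug sensitivity and resistance testing on K562-aAPC-expanded normal NK cells: 5 concentrations (10-fold steps over a 10,000-fold range), 72 h at 37 °C, viability by CellTiter-Glo normalised to DMSO and benzethonium chloride controls; DSS from the fitted curve.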

DERL-7 (IL-2 2.5 ng/mL) [2] = experiment: as above; details: 72 h
IMC-1 (IL-2 20 ng/mL) [3] = experiment: as above; details: 72 h
KAI3 (IL-2 2.5 ng/mL) [4] = experiment: as above; details: 72 h
KHYG-1 (IL-2 2.5 ng/mL) [5] = experiment: as above; details: 72 h
NK-92 (IL-2 2.5 ng/mL) [6] = experiment: as above; details: 72 h
NK-YS (IL-2 2.5 ng/mL) [7] = experiment: as above; details: 72 h
NKL (IL-2 2.5 ng/mL) [8] = experiment: as above; details: 72 h
SNK-6 (IL-2 2.5 ng/mL) [9] = experiment: as above; details: 72 h
YT (IL-2 2.5 ng/mL) [10] = experiment: as above; details: 72 h
[11] = test system: normal primary NK cells, pool 1 (3 donors) (IL-2 2.5 ng/mL); experiment: as above; details: 72 h
[12] = test system: normal primary NK cells, pool 1 (3 donors), resting (IL-2 0 ng/mL); experiment: as above; details: 72 h
[13] = test system: normal primary NK cells, pool 2 (3 donors) (IL-2 2.5 ng/mL); experiment: as above; details: 72 h
[14] = test system: normal primary NK cells, pool 3 (3 donors) (IL-2 2.5 ng/mL); experiment: as above; details: 72 h
[15] = test system: normal NK cells expanded with K562-aAPC; experiment: drug sensitivity score (DSS) (DSS units); higher = more sensitive; extreme values may be limits of the assay; details: 72 h; IL-2 2.5 ng/mL
Protocol: as §1

DERL-7 (IL-2 2.5 ng/mL) [16] = experiment: as above; details: 72 h
IMC-1 (IL-2 20 ng/mL) [17] = experiment: as above; details: 72 h
KAI3 (IL-2 2.5 ng/mL) [18] = experiment: as above; details: 72 h
KHYG-1 (IL-2 2.5 ng/mL) [19] = experiment: as above; details: 72 h
NK-92 (IL-2 2.5 ng/mL) [20] = experiment: as above; details: 72 h
NK-YS (IL-2 2.5 ng/mL) [21] = experiment: as above; details: 72 h
NKL (IL-2 2.5 ng/mL) [22] = experiment: as above; details: 72 h
SNK-6 (IL-2 2.5 ng/mL) [23] = experiment: as above; details: 72 h
YT (IL-2 2.5 ng/mL) [24] = experiment: as above; details: 72 h
[25] = test system: normal primary NK cells, pool 1 (3 donors) (IL-2 2.5 ng/mL); experiment: as above; details: 72 h
[26] = test system: normal primary NK cells, pool 1 (3 donors), resting (IL-2 0 ng/mL); experiment: as above; details: 72 h
[27] = test system: normal primary NK cells, pool 2 (3 donors) (IL-2 2.5 ng/mL); experiment: as above; details: 72 h
[28] = test system: normal primary NK cells, pool 3 (3 donors) (IL-2 2.5 ng/mL); experiment: as above; details: 72 h

C[C@]1(c2nc3c(C(N)=O)cccc3[nH]2)CCCN1 [Veliparib] (max concentration tested 10000 nM)
percent inhibition of viability [%]
Details	1 nM	10 nM	100 nM	1000 nM	10000 nM
DERL-7 (IL-2 2.5 ng/mL) [2]	1.66	5.22	0.09	-2.95	25.1
IMC-1 (IL-2 20 ng/mL) [3]	1	0.9	0.37	0.91	1.79
KAI3 (IL-2 2.5 ng/mL) [4]	1.98	-0.92	-2.55	12.1	34.3
KHYG-1 (IL-2 2.5 ng/mL) [5]	-11.7	-8.12	-8.94	-3.41	12
NK-92 (IL-2 2.5 ng/mL) [6]	7.45	4.92	2.84	-4.04	22.9
NK-YS (IL-2 2.5 ng/mL) [7]	-6.78	-8.37	-8.01	-6.17	14.8
NKL (IL-2 2.5 ng/mL) [8]	-2.87	-3.94	-5.59	4.18	38.6
SNK-6 (IL-2 2.5 ng/mL) [9]	3.66	1.93	-13.1	-1.7	13.8
YT (IL-2 2.5 ng/mL) [10]	1.3	-1.34	0.84	-0.22	3.43
[1]	3.32	0.6	3.03	3.27	19.4
[11]	-7.43	1.5	2.84	7.25	50.4
[12]	-8.38	-4.44	2.95	-4.91	56.4
[13]	-7.51	-2.4	-4.92	-8.11	16.4
[14]	-3.03	-1.96	-0.62	-3.1	15.2

Details	drug sensitivity score
DERL-7 (IL-2 2.5 ng/mL) [16]	0.78
IMC-1 (IL-2 20 ng/mL) [17]	0
KAI3 (IL-2 2.5 ng/mL) [18]	3.29
KHYG-1 (IL-2 2.5 ng/mL) [19]	0.01
NK-92 (IL-2 2.5 ng/mL) [20]	0.6
NK-YS (IL-2 2.5 ng/mL) [21]	0.1
NKL (IL-2 2.5 ng/mL) [22]	2.57
SNK-6 (IL-2 2.5 ng/mL) [23]	0.1
YT (IL-2 2.5 ng/mL) [24]	0
[15]	0.98
[25]	3.89
[26]	2.67
[27]	0.16
[28]	0.16

CCCS(=O)(=O)Nc1ccc(F)c(C(=O)c2c[nH]c3ncc(-c4ccc(Cl)cc4)cc23)c1F [Vemurafenib] (max concentration tested 10000 nM)
percent inhibition of viability [%]
Details	1 nM	10 nM	100 nM	1000 nM	10000 nM
DERL-7 (IL-2 2.5 ng/mL) [2]	3.23	0.38	4.34	15.4	79.5
IMC-1 (IL-2 20 ng/mL) [3]	-6.37	-7.47	-1.05	-3.36	37.8
KAI3 (IL-2 2.5 ng/mL) [4]	-2.25	-4.57	-1.04	12.3	75.2
KHYG-1 (IL-2 2.5 ng/mL) [5]	1.21	-7.43	3.43	42.5	105
NK-92 (IL-2 2.5 ng/mL) [6]	-0.79	1.62	12	22.6	89.5
NK-YS (IL-2 2.5 ng/mL) [7]	-2.8	-10.1	-3.62	0.91	77.1
NKL (IL-2 2.5 ng/mL) [8]	-13.6	-17.7	-12.3	12.2	73.1
SNK-6 (IL-2 2.5 ng/mL) [9]	-12.9	-2.01	-17	-0.04	92.6
YT (IL-2 2.5 ng/mL) [10]	1.23	-1.61	4.12	16.2	98.7
[1]	-5.54	-6.29	-9.37	-4.54	5.8
[11]	-3.98	-7.14	1.09	0.31	-3.81
[12]	3.45	-3.02	6.61	23.4	23.8
[13]	-1.54	-1.23	6.03	0.86	9.89
[14]	0.76	-2.71	6.1	0.26	0.17

Details	drug sensitivity score
DERL-7 (IL-2 2.5 ng/mL) [16]	6.92
IMC-1 (IL-2 20 ng/mL) [17]	1.59
KAI3 (IL-2 2.5 ng/mL) [18]	6.2
KHYG-1 (IL-2 2.5 ng/mL) [19]	11.1
NK-92 (IL-2 2.5 ng/mL) [20]	8.16
NK-YS (IL-2 2.5 ng/mL) [21]	4.38
NKL (IL-2 2.5 ng/mL) [22]	6.06
SNK-6 (IL-2 2.5 ng/mL) [23]	5.17
YT (IL-2 2.5 ng/mL) [24]	8.15
[15]	0
[25]	0
[26]	4.54
[27]	0
[28]	0

CS(=O)(=O)c1ccc(C(=O)Nc2ccc(Cl)c(-c3ccccn3)c2)c(Cl)c1 [Vismodegib] (max concentration tested 10000 nM)
percent inhibition of viability [%]
Details	1 nM	10 nM	100 nM	1000 nM	10000 nM
DERL-7 (IL-2 2.5 ng/mL) [2]	5.54	5.58	5.06	6.24	36.2
IMC-1 (IL-2 20 ng/mL) [3]	-2.4	2.13	-1.82	2.66	8.93
KAI3 (IL-2 2.5 ng/mL) [4]	-6.47	-10.6	-10.8	8.7	6.77
KHYG-1 (IL-2 2.5 ng/mL) [5]	-7.27	-4.1	-4.53	-3.56	13.7
NK-92 (IL-2 2.5 ng/mL) [6]	1.83	1.49	-0.7	17.8	59.3
NK-YS (IL-2 2.5 ng/mL) [7]	-6.25	-5.83	-1.92	0.14	14.4
NKL (IL-2 2.5 ng/mL) [8]	-2.06	-5.75	8.65	9.14	39.8
SNK-6 (IL-2 2.5 ng/mL) [9]	-24.4	-21.3	-33.1	-9.73	9.74
YT (IL-2 2.5 ng/mL) [10]	-2.78	-9.59	3.13	-6.38	24.6
[1]	-6.55	-2.58	-4.57	6.27	3.14
[11]	-0.96	12.3	5.5	3.58	12.3
[12]	-4.18	4.86	12.4	12.3	11.2
[13]	-4.51	8.63	4.94	7.5	11.8
[14]	-5.07	-0.78	8.43	-1.07	0.11

Details	drug sensitivity score
DERL-7 (IL-2 2.5 ng/mL) [16]	2.77
IMC-1 (IL-2 20 ng/mL) [17]	0
KAI3 (IL-2 2.5 ng/mL) [18]	0
KHYG-1 (IL-2 2.5 ng/mL) [19]	0.07
NK-92 (IL-2 2.5 ng/mL) [20]	5.87
NK-YS (IL-2 2.5 ng/mL) [21]	0.2
NKL (IL-2 2.5 ng/mL) [22]	3.21
SNK-6 (IL-2 2.5 ng/mL) [23]	0
YT (IL-2 2.5 ng/mL) [24]	0.65
[15]	0
[25]	0
[26]	1.51
[27]	0.05
[28]	0
